From patent US9975884B2, “Kojic acid-derived mannich bases with biological effect” (priority 2015, dated 2018) come the findings set out here.

In brackets after ≈: the same amount, converted by molar mass. Read-outs that look alike come from different tables or passages of the source.

A word on the MIC: it is the smallest concentration in the dilution series that meets the test's criterion for growth inhibition. The melting point is the temperature, or range, at which the solid turns liquid.

Series [1] can be described thus: DPPH free radical scavenging effect. Conditions: 1000 μg/ml. In general terms: Loss of DPPH colour is used to gauge radical scavenging.
Series [2] can be described thus: Iron reduction antioxidant power (FRAP). Conditions: 1000 μg/ml.
The nature of series [3]: Phosphomolybdenum reduction antioxidant power (PRAP). Conditions: for Phosphomolybdenum Reduction Antioxidant Power (Absorbance at 600 nm ± S.S): 1000 μg/ml.
The next series has as its system tyrosinase. Type of series: biochemical.
Another series concerns M. avium (ATCC 15769). The series is described as follows: Antimycobacterial activity. In kind it is cell-based, Mycobacterium avium. Conditions: for MIC: Mycobacterium avium.
A further series can be described thus: Metal chelation effect. Conditions: for iron chelation effect: dose amount of 1000 μg/ml.
The nature of series [4]: DMPD radical scavenging effect. Conditions: 1000 μg/ml.
A further series deals with collagenase. The series can be described thus: Collagenase enzyme inhibition. In kind it is biochemical. On the procedure: Physical properties of the compounds such as efficiency of synthesis reactions and melting points are determined. […] Antidermatophytic activity of the compounds against Trichophyton mentagrophytes var. erinacei, Epidermophyton floccosum and Microsporum gypseum as well as their antimycobacterial activity against Mycobacterium tuberculosis H37Rv (ATCC 27294) and M. avium (ATCC 15769) are analyzed under non-toxic concentrations using MRC-5 and He-La cell lines. Antityrosinase activity thereof is determined by spectrophotometric method using L-DOPA as a substrate. Antioxidant activity is determined by the methods of 2,2-diphenyl-1-picrilhydrasil (DPPH), N,N-dimethyl-p-phenylenediamine (DMPD) radical scavenging activity, metal chelation effect, iron-(FRAP), phosphomolybdenum-(PRAP) reducing antioxidant power. Elastase and collagenase enzyme inhibitions are performed to determine anti-aging activity. Due to their antityrosinase, antioxidant, anti-aging, antidermatophytic and antimycobacterial effects, the compounds may be used in medicine, cosmeceutical, food and textile industry.

The test system of the next series is elastase. The series can be described thus: Elastase enzyme inhibition. Type of series: biochemical.
A short description of a further series: Solubility in solvents. In kind it is physicochemical. The protocol:
Melting point: 180-1<*>C, Yield: 90%. White powder crystals. Insoluble in water, low-solubility in methanol, ethanol and acetone, and soluble in chloroform.
Melting point 196-7° C., Yield: 93%. White powder crystals. Insoluble in water, methanol, ethanol and acetone, but soluble in chloroform.

[5] abbreviates: ATCC15769, value column 8 of the table, read-out: MIC against M. avium.

As to `O=c1c(O)c(-c2ccc(O)c(O)c2)oc2cc(O)cc(O)c12` [Quercetin, quercetin], the “DPPH Free Radical Scavenging Effect (Scavenging % ± S.S)” value in series [1] is 91.14 ± 0.65%. Moreover, in [2], the “Iron Reduction Antioxidant Power (Absorbance at 700 nm ± S.S)” value (“Iron Reduction Antioxidant Power” for short) came out at 2.015 ± 0.032. Also, the “Phosphomolybdenum Reduction Antioxidant Power (Absorbance at 600 nm ± S.S)” value in series [3] was determined as 0.320 ± 0.005.

Regarding `O=c1cc(CO)occ1O` [Kojic Acid, Kojic acid], the Low-dose antityrosinase activity in the series with tyrosinase (0.025 mg/ml) was determined as 18.65 ± 1.33; in the series with tyrosinase (0.05 mg/ml), 44.74 ± 0.53; in the series on tyrosinase (0.1 mg/ml) it was 61.28 ± 2.03; with tyrosinase (0.25 mg/ml) it was 77.44 ± 0.68. In addition, the MIC in the series on M. avium (ATCC 15769) (ATCC15769, read-out: MIC against M. avium) was determined as 16 µg/mL (≈ 113 µM). In series [1], the “DPPH Free Radical Scavenging Effect (Scavenging % ± S.S)” value is listed as 22.51 ± 2.65%. Besides, in “Metal chelation effect” (1000 μg/ml), the “Metal Chelation Effect (Chelation % ± S.S)” value is reported as 8.89 ± 0.75%. The “Iron Reduction Antioxidant Power” value in [2] was determined as 0.757 ± 0.026. For the same compound, the “antioxidant power of phosphomolybdenum structure” value in series [3] was found to be 0.103 ± 0.006 µg/mL. Moreover, in series [3], the “Phosphomolybdenum Reduction Antioxidant Power (Absorbance at 600 nm ± S.S)” value is listed as 0.103 ± 0.006. Moreover, the “DMPD Radical Scavenging Effect (Scavenging % ± S.S)” value in series [4] amounted to 41.86 ± 1.10%. Also, the “Collagenase Enzyme Inhibition (Inhibition % ± S.S)” value in the series on collagenase (1000 μg/ml-Stock) turned out to be 15.18 ± 5.92%. Moreover, the elastase enzyme inhibition entry with elastase is “No elastase enzyme inhibition is detected”.

Take `NNC(=O)c1ccncc1` [Isoniazide]: the MIC in the series with M. avium (ATCC 15769) (setting [5]) is 0.125 µg/mL (≈ 0.911 µM).

For `O=C(O)CN(CCN(CC(=O)O)CC(=O)O)CC(=O)O` [EDTA, ethylenediaminetetraacetic acid], in “Metal chelation effect” (2000 μg/ml), the “Metal Chelation Effect (Chelation % ± S.S)” value came out at 97.66±0.12%.

For the compound `O=c1cc(CO)oc(CN2CCN(Cc3ccc(Cl)c(Cl)c3)CC2)c1O` [Compound of Formula 1], the melting point fell in the range of 180 to 181 °C. The “IC50 (tyrosinase)” value against tyrosinase was found to be 11 ± 1 µg/mL. The compound also showed a Low-dose antityrosinase activity in the series with tyrosinase (0.0025 mg/ml) of 23.63 ± 1.65. The compound further registered a Low-dose antityrosinase activity in the series on tyrosinase (0.005 mg/ml) of 37.81 ± 0.54. In the series with tyrosinase (0.01 mg/ml), this compound showed a Low-dose antityrosinase activity of 51.25 ± 1.09. In addition, the Low-dose antityrosinase activity in the series with tyrosinase (0.025 mg/ml) was found to be 56.79 ± 0.44. The same compound had a Low-dose antityrosinase activity in the series with tyrosinase (0.05 mg/ml) of 70.62 ± 1.62. The compound further returned a Low-dose antityrosinase activity with tyrosinase (0.1 mg/ml) of 73.57 ± 4.81. This compound gave a Low-dose antityrosinase activity with tyrosinase (0.25 mg/ml) of 80.63 ± 2.01. Also, in the series on tyrosinase (relative to kojic acid), the “antityrosinase effect, times higher than kojic acid” value worked out at 6 times. Besides, the MIC in the series on M. avium (ATCC 15769) (setting [5]) stood at 2 µg/mL. In addition, the “DPPH Free Radical Scavenging Effect (Scavenging % ± S.S)” value in [1] was 14.59 ± 2.52%. For the same compound, the “Metal Chelation Effect (Chelation % ± S.S)” value in the series “Metal chelation effect” (1000 μg/ml) amounted to 67.57 ± 1.30%. For the same compound, the “iron chelation effect” value in “Metal chelation effect” stood at 67.57±1.30%. In addition, in series [2], the “Iron Reduction Antioxidant Power” value worked out at 0.274 ± 0.003. In series [3], the “antioxidant power of phosphomolybdenum structure” value is 0.154 ± 0.004 µg/mL and the “Phosphomolybdenum Reduction Antioxidant Power (Absorbance at 600 nm ± S.S)” value amounted to 0.154 ± 0.004. Also, the “DMPD Radical Scavenging Effect (Scavenging % ± S.S)” value in series [4] was 36.05 ± 3.11%. In the series with collagenase (1000 μg/ml-Stock), the “Collagenase Enzyme Inhibition (Inhibition % ± S.S)” value worked out at 15.57 ± 2.24%. Besides, the elastase enzyme inhibition result in the series with elastase is “No elastase enzyme inhibition is detected”. Further, in the series “Solubility in solvents”, the solubility in chloroform result is listed as “soluble”; the “solubility in methanol, ethanol and acetone” value is on record as “low-solubility”; the solubility in water entry is given as “Insoluble”.

Take “3-Hydmxy-6-(hydmxymethyl)-2-[{4-(2,6 diclorobenzyl)piperazme-1-il]methyl-4H-pyran-4-one [Compound of Formula 2]”: the “MIC against M. avium” value with M. avium (ATCC 15769) stood at 2 µg/mL. The “DPPH Free Radical Scavenging Effect (Scavenging % ± S.S)” value in [1] is 12.20 ± 1.72%. In addition, in the series “Metal chelation effect” (1000 μg/ml), the “Metal Chelation Effect (Chelation % ± S.S)” value stood at 58.17 ± 0.99%. The “iron chelation effect” value in the series “Metal chelation effect” came to 58.17±0.99%. For the same compound, the “Iron Reduction Antioxidant Power” value in series [2] is 0.217 ± 0.002. Further, in [3], the “antioxidant power of phosphomolybdenum structure” value stood at 0.187 ± 0.017 µg/mL and the “Phosphomolybdenum Reduction Antioxidant Power (Absorbance at 600 nm ± S.S)” value stood at 0.187 ± 0.017. Also, the “DMPD Radical Scavenging Effect (Scavenging % ± S.S)” value in series [4] turned out to be 24.94 ± 1.64%. Moreover, the “Collagenase Enzyme Inhibition (Inhibition % ± S.S)” value with collagenase (1000 μg/ml-Stock) is listed as 12.40 ± 4.57%. Also, the elastase enzyme inhibition entry with elastase is “No elastase enzyme inhibition is detected”. In addition, in the series “Solubility in solvents”, the solubility in chloroform entry is recorded as “soluble”; the “solubility in methanol, ethanol and acetone” value is recorded as “Insoluble”; the solubility in water result is “Insoluble”.

Take `O=C1O[C@H]([C@@H](O)CO)C(O)=C1O` [Ascorbic acid]: the “DMPD Radical Scavenging Effect (Scavenging % ± S.S)” value in [4] is 69.58 ± 0.71%.

For the compound `O=C(O[C@@H]1Cc2c(O)cc(O)cc2O[C@@H]1c1cc(O)c(O)c(O)c1)c1cc(O)c(O)c(O)c1` [EGCG, epigallocatechin gallate], the “Collagenase Enzyme Inhibition (Inhibition % ± S.S)” value in the series on collagenase (15 mM) stood at 44.64 ± 2.87%.
